The compounds below were run against Integrin alpha-4/beta-1 (Homo sapiens, UniProt P05556+P13612) (assay: Antagonist activity at alpha4beta1 integrin).
Assay type: functional

Integrin alpha-4/beta-1, sequence (P05556 whole entry): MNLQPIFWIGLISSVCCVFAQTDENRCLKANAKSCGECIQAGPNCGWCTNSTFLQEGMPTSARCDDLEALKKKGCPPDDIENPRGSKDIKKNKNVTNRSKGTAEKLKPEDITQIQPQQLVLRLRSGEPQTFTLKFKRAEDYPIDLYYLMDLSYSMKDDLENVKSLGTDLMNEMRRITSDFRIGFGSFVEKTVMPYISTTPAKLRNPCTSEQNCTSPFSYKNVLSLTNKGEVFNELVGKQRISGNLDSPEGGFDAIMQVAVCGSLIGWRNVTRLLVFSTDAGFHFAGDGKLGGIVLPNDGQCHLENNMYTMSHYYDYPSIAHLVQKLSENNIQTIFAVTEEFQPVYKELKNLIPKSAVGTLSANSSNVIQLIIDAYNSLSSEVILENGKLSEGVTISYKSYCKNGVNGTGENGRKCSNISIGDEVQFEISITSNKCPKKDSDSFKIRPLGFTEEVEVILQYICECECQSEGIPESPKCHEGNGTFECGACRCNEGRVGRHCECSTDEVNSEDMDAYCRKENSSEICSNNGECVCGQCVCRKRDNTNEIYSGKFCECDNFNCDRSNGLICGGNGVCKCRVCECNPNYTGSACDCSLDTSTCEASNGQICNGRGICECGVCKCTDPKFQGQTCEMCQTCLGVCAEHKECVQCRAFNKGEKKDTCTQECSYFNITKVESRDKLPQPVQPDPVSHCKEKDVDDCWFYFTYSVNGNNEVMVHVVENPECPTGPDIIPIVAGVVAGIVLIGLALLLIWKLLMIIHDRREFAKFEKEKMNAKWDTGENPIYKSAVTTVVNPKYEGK
Integrin alpha-4/beta-1, sequence (P13612 whole entry): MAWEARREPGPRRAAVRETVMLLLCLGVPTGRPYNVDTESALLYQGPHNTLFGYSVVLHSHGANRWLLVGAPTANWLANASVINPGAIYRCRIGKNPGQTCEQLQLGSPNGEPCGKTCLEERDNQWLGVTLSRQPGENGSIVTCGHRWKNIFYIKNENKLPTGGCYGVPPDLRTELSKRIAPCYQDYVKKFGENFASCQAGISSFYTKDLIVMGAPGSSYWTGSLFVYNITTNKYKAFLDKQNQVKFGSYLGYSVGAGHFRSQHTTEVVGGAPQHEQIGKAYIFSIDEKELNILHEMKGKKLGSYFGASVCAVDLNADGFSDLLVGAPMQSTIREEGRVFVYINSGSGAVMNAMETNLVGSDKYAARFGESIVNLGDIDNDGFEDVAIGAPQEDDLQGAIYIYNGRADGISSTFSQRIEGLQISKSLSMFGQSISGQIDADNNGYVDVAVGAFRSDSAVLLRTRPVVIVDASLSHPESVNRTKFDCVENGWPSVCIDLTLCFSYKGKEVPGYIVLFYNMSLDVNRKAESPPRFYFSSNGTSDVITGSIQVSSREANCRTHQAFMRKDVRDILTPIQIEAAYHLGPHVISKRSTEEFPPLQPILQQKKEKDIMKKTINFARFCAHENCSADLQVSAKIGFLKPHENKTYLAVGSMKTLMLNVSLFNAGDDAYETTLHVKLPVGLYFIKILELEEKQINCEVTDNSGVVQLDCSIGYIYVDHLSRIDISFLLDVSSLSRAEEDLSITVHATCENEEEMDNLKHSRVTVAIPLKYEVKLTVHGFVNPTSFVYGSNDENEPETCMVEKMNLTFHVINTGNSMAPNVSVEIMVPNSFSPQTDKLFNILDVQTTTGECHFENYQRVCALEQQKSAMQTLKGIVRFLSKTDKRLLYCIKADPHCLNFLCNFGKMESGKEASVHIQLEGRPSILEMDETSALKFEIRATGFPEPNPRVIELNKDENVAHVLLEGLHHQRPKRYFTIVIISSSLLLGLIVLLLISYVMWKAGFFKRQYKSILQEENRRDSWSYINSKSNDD

| IC50 [nM] | SMILES |
| --- | --- |
| 67 | CCCNc1c(N[C@@H](Cc2ccc(OCc3c(Cl)cccc3Cl)cc2)C(=O)O)c(=O)c1=O |
| 36.8 | COc1ccccc1-c1ccc(C[C@H](NC(=O)Cc2ccccc2Cl)C(=O)O)cc1 |
| 6 | CS(=O)(=O)CCCCC1(C(=O)N[C@H](Cc2ccc(NC(=O)c3c(Cl)cccc3Cl)cc2)C(=O)O)CCC1 |
| 0.07 | COc1cccc(OC)c1-c1ccc(C[C@@H](NC(=O)[C@@]2(C)CCN2S(=O)(=O)c2cc(Cl)cc(Cl)c2)C(=O)O)cc1 |
| 4100 | O=C(O)[C@@H](CSSCCNC(=O)C12CC3CC(CC(C3)C1)C2)NC12CC3CC(CC(C3)C1)C2 |
| 105 | O=C(Nc1ccc(C[C@H](NC(=O)[C@@H]2C3CCC(CC3)N2S(=O)(=O)c2ccccc2Cl)C(=O)O)cc1)c1cc(Cl)nc(Cl)c1 |
| 140 | COc1cccc(OC)c1-c1ccc(C[C@H](NC[C@@H]2CCCN2S(=O)(=O)c2cc(Cl)cc(Cl)c2)C(=O)O)cc1 |
| 1.27 | COCCCC[C@@]1(C(=O)N[C@H](Cc2ccc(-c3c(OC)cccc3OC)cc2)C(=O)O)CCCO1 |
| 2 | O=C(O)CC[C@H](NCS(=O)(=O)c1ccccc1)C(=O)N[C@@H](Cc1ccc(OCc2c(Cl)cccc2Cl)cc1)C(=O)O |
| 4.5 | CC(C)C(=O)Oc1cccc(OC(=O)C(C)C)c1-c1ccc(C[C@@H](NC(=O)[C@@]2(C)CCCN2S(=O)(=O)c2cc(Cl)cc(Cl)c2)C(=O)O)cc1 |

— ChEMBL document CHEMBL1828570, “Modeling the molecular basis for α4β1 integrin antagonism” (Bioorg Med Chem, 2011)
